{
  "source": "patent US9463174B2",
  "about": "“Pharmaceutical composition for the treatment of type-1 diabetes” (priority 2008, dated 2016)",
  "key": {"[1]": {"test_system": "established diabetic MLDS-mice", "assay": "Reversal of well established diabetes in MLDS-mice by daily GABA injection", "type": "in vivo", "description": "To investigate if GABA can reverse diabetes, daily GABA injection was started in well established diabetes in MLDS-mice (blood glucose>30 mM).\n(§1) The techniques used for the in vivo and in vitro studies in this embodiment of the disclosure are also described. CD1 mice (Charles River Laboratories, St Constant, Canada), NOD mice and transgenic TCR NOD mice (Jackson Laboratory, USA) were housed under a controlled temperature and a 12-h light/12-h dark cycle in the St. Michael's Hospital Animal facility with free access to food (normal rodent chow) and water, except where noted. All procedures were conducted according to protocols and guidelines approved by the Canadian Council of Animal Care and the St. Michael's Hospital Animal Care committee. Mice were treated with GABA by daily intraperitoneal (i.p.) injection of 20·g GABA per mouse to reach ˜200 μM circulation concentration and PBS as control. The daily treatment is continuously conducted during 60-day experimental period. One wk after the GABA and PBS treatment, diabetes was induced in both groups by i.p.-injection of low-dose streptozotocin (STZ, Sigma Chemical Co., St. Louis, Mo. 40 mg/kg body weight) for 5 consecutive days. The development of hyperglycemia was monitored by measuring blood glucose from the tail vein every third day following STZ injections using an Ascensia ELITE® XL glucose meter. For some studies, overtly diabetic mice induced by STZ and without GABA treatment were divided into two groups: one group started receiving daily i.p. injection of 20·g GABA whereas other group received only PBS. The treatment was continued for 75 days. The handling of the NOD mice were similar to those CD1 mice except the STZ injection. The NOD mice have a susceptibility to spontaneous development of autoimmune T1D. The TCR transgenic 8.3-NOD mice have a markedly accelerated disease (J. Vergdaguer et al, 1997 J Exp Med. 186(10):1663-76).\nGroups of mice were subject to a glucose tolerance test (IPGTT) before treatment (day 0), one, three, and five weeks after administration and the day prior termination. For IPGTT, mice were fasted overnight for 15 h, and were given 1.5 g glucose/kg body weight via i.p.-injection. Blood was drawn from the tail vein and blood glucose was measured at 0, 10, 20, 30, 60, 90, and 120 min after glucose administration.\n(§2) Mice were housed in metabolic cages prior to initiation of GABA and PBS treatment and before termination of experiments. Food intake, water consumption and urine output were measured. To determine the fat distribution, three intra-abdominal fat pads retroperitoneal, mesenteric and epididymal were dissected and weighed. Subcutaneous fat was also analyzed.\nBlood samples (200 μL) were collected from the saphenous vein at time as indicated and at the termination of experiments via cardiac puncture (1 mL) for measurement of insulin, glucagon, and cytokine profiles. Serum was collected by centrifugation and stored at −80° C. until use. Insulin and glucagon concentration in serum samples were determined using insulin ELISA kit (Crystal Chem., Chicago, Ill., USA) and glucagon RIA kit (Linco Research, St. Louis, Miss., USA). Circulating GLP-1 levels were determined using GLP-1 RIA kit (Linco Research, St. Louis, Miss., USA). Cytokine concentration in the serum samples was determined using kit Multiplex Bead-based Cytokine assay (BioRed, Canada).\nPancreas harvesting and tissue processing were performed as described previously (Wang Q, Brubaker P L 2002 Diabetologia. 45(9):1263-73). Briefly, after cardiac puncture under anesthesia, a midlaparotomy was performed and the pancreas was immediately dissected from surrounding tissues, cleared of fat and lymph nodes, blotted, weighed, and placed in a formaldehyde-acetic acid solution. The procedure from completion of cardiac puncture to placement of tissue in fixative was completed within 5 min. After overnight fixation, the pancreas was washed in cold running water, cut into 10-12 segments. […]"}, "[2]": {"test_system": "established diabetic hyperglycemic NOD mice", "assay": "Treatment of established diabetes in NOD mice (GABA alone or GABA plus Ex4)", "type": "in vivo", "description": "as §1, §2\nAll data are presented as mean±SEM. Statistic analysis was performed using Student's t-test or analysis of variance (ANOVA) with ‘n−1’ post hoc custom hypotheses tests, as appropriate, with the SAS software (Statistical Analysis Systems, Cary, N.C.) or the GraphPad Prism 3.0 program (GraphPad Software Inc., San Diego, Calif.). The incidence of diabetes was plotted using the Kaplan-Meier method and statistical comparisons made with the log-rank test. The significance of differences in insulitis scores was determined with the Chi-squared test. The differences between groups in the in vitro proliferation and cytokine release assays were determined by analysis of variance (ANOVA). Significance was assumed at p<0.05."}, "[3]": {"test_system": "INS-1 cells", "assay": "Cell proliferation assay by 3H-thymidine incorporation", "type": "cell-based", "description": "INS-1 cells were grown to 80-85% confluence in 12-well plates, serum-starved for 24 h and then treated with GABA at various concentrations in the presence of 3 mmol/l glucose. Some cells were also pre-incubated with GABA receptor antagonist for 20 h prior before the treatment. DNA synthesis was measured by incubating cells with 37 kBq/ml 3H-methylthymidine (specific activity: 3000 GBq/mmol; Amersham Pharmacia Biotech) for 4 h. Cells were then washed twice in ice-cold PBS and incubated for 30 min in 1 ml of 5% trichloroacetic acid on ice to precipitate the DNA. The liquid layer was removed by aspiration and 250 μl of 0.1 mol/l sodium hydroxide was added to the cells for 30 min at room temperature. During this time the container was gently shaken. The solubilised material was then transferred to 5 ml of scintillant, and radioactive counts were determined by liquid scintillation counting."}, "[4]": {"test_system": "STC-1 cells", "assay": "GLP-1 production and secretion in gut-derived cells (GLP-1 RIA)", "type": "cell-based", "description": "In these in vitro assays using GLP-1-secreting and/or insulin-secreting cells, it was shown that the production and secretion of GLP-1 in the gut-derived cells (STC-1) were modulated by GABA, and the production and release of GABA from the beta-cells were also modulated by GLP-1. The specificity of these assays was determined by including the GABAAR antagonists or GLP-1 receptor antagonist in the assays.\nEffects of GABA on stimulation of GLP-1 secretion from gut-derived cell lines. The production and secretion of GLP-1 in the gut-derived cells (STC-1) are examined by GLP-1 RIA. The time and dose dependent effects of GABA on GLP-1 production and secretion are examined in the gut cell lines in the presence of various concentration of GABA in which the specificity is determined by including the GABAAR antagonists in the assay."}, "[5]": {"conditions": "day 74 after GABA daily administration"}},
  "note": "“Also recorded” adds a separate entry of the source.",
  "data": [
    {"compound": "NCCCC(=O)O", "note": "[GABA, gamma-aminobutyric acid]", "values": [
      {"measurement": "glucose tolerance (IPGTT) at 7th days after GABA injections", "setting": "[1]; 7th day", "value": "significantly improved; also recorded: improved glucose tolerance"},
      {"measurement": "blood glucose / diabetic hyperglycemia, course", "setting": "[1]; daily GABA started at blood glucose>30 mM", "value": "started to decline only a few days after GABA injection; also recorded: reverses MLDS-induced diabetic hyperglycemia; also recorded: completely reversed diabetic hyperglycemia"},
      {"measurement": "blood glucose levels at day 74", "setting": "[1]; [5]", "value": "closed to the normal range"},
      {"measurement": "glucose tolerance at day 74", "setting": "[1]; [5]", "value": "almost identical to control normal mice; also recorded: improved glucose tolerance"},
      {"measurement": "metabolic conditions (metabolic studies)", "setting": "[1]; established diabetic MLDS mice", "value": "normalized metabolic conditions; also recorded: normalized metabolic status"},
      {"measurement": "glucose tolerance at all time points examined", "setting": "[1]; including two weeks and eight weeks after GABA injections", "value": "steadily improves glucose tolerance"},
      {"measurement": "islet morphology", "setting": "[1]; islet histochemistry", "value": "almost normal islet morphology"},
      {"measurement": "lymphocytes in the islets", "setting": "[1]; islet histochemistry", "value": "few lymphocytes were seen"},
      {"measurement": "alpha-cell mass", "setting": "[1]; vs non-treated MLDS-mice", "value": "reduced alpha-cell mass"},
      {"measurement": "beta-cell mass", "setting": "[1]; vs non-treated MLDS-mice", "value": "significant enlarged beta-cell mass; also recorded: significantly restored beta-cell mass"},
      {"measurement": "circulating glucagon", "setting": "[1]; vs non-treated MLDS-mice", "value": "reduced circulating glucagon levels"},
      {"measurement": "circulating insulin", "setting": "[1]; vs non-treated MLDS-mice", "value": "elevated circulating insulin"},
      {"measurement": "ratio of insulin to glucagon", "setting": "[1]; vs non-treated MLDS-mice", "value": "largely increased ratio of insulin to glucagon; also recorded: significantly increased"},
      {"measurement": "time for which lower blood glucose levels were maintained", "setting": "[2]; GABA alone", "value": "about two"},
      {"measurement": "blood glucose levels", "setting": "[2]; GABA vs PBS, after onset of hyperglycemia", "value": "significantly reduced blood glucose levels"},
      {"measurement": "sickness", "setting": "[2]; GABA-treated group", "value": "no obvious sickness was developed"},
      {"measurement": "diabetic symptoms (metabolic studies)", "setting": "[2]; GABA-treated vs PBS", "value": "significantly lessened"},
      {"measurement": "reversal of diabetic hyperglycemia / remission", "setting": "[2]; after onset of diabetic hyperglycemia, combination determined at two weeks after treatment", "value": "transient effect; also recorded: not able to achieve a full remission; also recorded: not effective in completely reversing diabetic hyperglycemia"},
      {"measurement": "incidence of diabetes", "setting": "[2]; diabetes when blood glucose ≧12 mM, GABA 20·g mouse, Ex4 1 nmol/kg, therapies PBS, GABA alone, GABA plus Ex4", "value": "significantly lower"},
      {"measurement": "feces", "setting": "[2]; established diabetic NOD mice", "value": "reduced"},
      {"measurement": "food intake", "setting": "[2]; established diabetic NOD mice", "value": "reduced"},
      {"measurement": "urine", "setting": "[2]; established diabetic NOD mice", "value": "reduced"},
      {"measurement": "water consumption", "setting": "[2]; established diabetic NOD mice", "value": "reduced"},
      {"measurement": "3H-thymidine incorporation into INS-1 cells", "setting": "[3]; GABA 100 mM, time-dependent manner", "value": "increased the ^3H-thymidine incorporation"},
      {"measurement": "INS-1 cell proliferation (3H-thymidine incorporation)", "setting": "[3]; various concentrations, 3 mmol/l glucose", "value": "dose-dependently increased INS-1 cell proliferation"},
      {"measurement": "production and secretion of GLP-1 in gut-derived cells (STC-1)", "setting": "[4]", "value": "modulated"}
    ]}
  ]
}
